Measurements reported in patent publication US20230089867A1, “CYCLIC PENTAMER COMPOUNDS AS PROPROTEIN CONVERTASE SUBTILISIN/KEXIN TYPE 9 (PCSK9) INHIBITORS FOR THE TREATMENT OF METABOLIC DISORDER” (Novartis AG, priority 2018, published 2023).

Biological target: human PCSK9 (Homo sapiens, UniProt Q8NBP7)
Assay: PCSK9 ligand binding TR-FRET assay (interference with binding of human PCSK9 to human LDLR)
Conditions: for Max % inhibition: PCSK9 FRET assay, efficacy (Amax), 100% = 1 uM unlabeled human PCSK9, 0% = DMSO; for IC50: TR-FRET, human PCSK9 Alexa Fluor 647 / human LDLR extracellular domain-Europium Kryptate, read-out: PCSK9 FRET Assay IC50
Procedure, shortened: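 Threefold compound dilutions were pre-incubated 30 min with PCSK9, after which 4 nM Europium Kryptate-tagged human LDLR ectodomain was added for a further 2 h.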

Chain of human PCSK9 (Q8NBP7 153-692): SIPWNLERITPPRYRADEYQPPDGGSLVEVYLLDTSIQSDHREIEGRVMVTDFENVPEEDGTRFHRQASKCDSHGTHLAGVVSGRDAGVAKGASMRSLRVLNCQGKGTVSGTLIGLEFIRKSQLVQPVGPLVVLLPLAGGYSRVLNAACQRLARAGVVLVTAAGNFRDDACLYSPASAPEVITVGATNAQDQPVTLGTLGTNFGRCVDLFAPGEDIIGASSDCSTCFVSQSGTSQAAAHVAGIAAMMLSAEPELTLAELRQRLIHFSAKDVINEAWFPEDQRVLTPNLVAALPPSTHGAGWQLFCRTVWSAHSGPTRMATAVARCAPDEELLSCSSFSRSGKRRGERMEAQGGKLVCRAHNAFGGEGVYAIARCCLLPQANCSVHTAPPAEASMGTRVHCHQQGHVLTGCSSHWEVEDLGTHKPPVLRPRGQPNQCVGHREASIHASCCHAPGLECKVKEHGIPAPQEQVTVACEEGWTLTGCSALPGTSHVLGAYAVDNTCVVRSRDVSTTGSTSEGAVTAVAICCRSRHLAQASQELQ
Chain of human PCSK9 (Q8NBP7 31-152 partner limits assumed): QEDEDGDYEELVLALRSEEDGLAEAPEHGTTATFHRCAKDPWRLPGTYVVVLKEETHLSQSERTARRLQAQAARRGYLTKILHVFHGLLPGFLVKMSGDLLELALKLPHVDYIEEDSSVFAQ

SMILES	Max % inhibition [%]	IC50 [nM]
COC[C@@H]1NC(=O)[C@H](CCCNC(=O)OC(C)(C)C)N(Cc2ccc(Cl)cc2Oc2ccc(-c3cnc(CN(C)C)n3C)cc2)C(=O)C[C@@H](Cc2ccccc2)C(=O)N(C)[C@H]2CCCC[C@@H]2NC(=O)C[C@H](Cc2ccc(Cl)cc2)N(C)C1=O [Compound 182, tert-butyl (3-((4S,7S,10S,14R,16aS,20aS)-14-benzyl-11-(4-chloro-2-(4-(2-((dimethylamino)methyl)-1-methyl-1H-imidazol-5-yl)phenoxy)benzyl)-4-(4-chlorobenzyl)-7-(methoxymethyl)-5,16-dimethyl-2,6,9,12,15-pentaoxodocosahydrobenzo[l][1,4,7,11,14]pentaazacyclooctadecin-10-yl)propyl)carbamate]	99.86	1.2
COC[C@@H]1NC(=O)[C@H](C)N(Cc2ccc(Cl)cc2Oc2ccc(-c3cnc(CN4CC5(COC5)C4)n3C)cc2)C(=O)C[C@@H](Cc2ccccc2)C(=O)N(C)[C@H]2CCCC[C@@H]2NC(=O)C[C@H](Cc2ccc(Cl)cc2)N(C)C1=O [Compound 157, (4S,7S,10S,14R,16aS,20aS)-11-(2-(4-(2-(2-oxa-6-azaspiro[3.3]heptan-6-ylmethyl)-1-methyl-1H-imidazol-5-yl)phenoxy)-4-chlorobenzyl)-14-benzyl-4-(4-chlorobenzyl)-7-(methoxymethyl)-5,10,16-trimethylhexadecahydrobenzo[l][1,4,7,11,14]pentaazacyclooctadecine-2,6,9,12,15(3H)-pentaone]	89.28	1.8

Other lines, results leading:

Max % inhibition [%]	IC50 [nM]	SMILES
98.03	1.2	COC[C@@H]1NC(=O)[C@H](CCCN2CCCC2=O)N(Cc2ccc(Cl)cc2Oc2ccc(-c3cnc(CN(C)C)n3C)cc2)C(=O)C[C@@H](Cc2ccccc2)C(=O)N(C)[C@H]2CCCC[C@@H]2NC(=O)C[C@H](Cc2ccc(Cl)cc2)N(C)C1=O [Compound 296, (4S,7S,10S,14R,16aS,20aS)-14-benzyl-11-(4-chloro-2-(4-(2-((dimethylamino)-methyl)-1-methyl-1H-imidazol-5-yl)phenoxy)benzyl)-4-(4-chlorobenzyl)-7-(methoxymethyl)-5,16-dimethyl-10-(3-(2-oxopyrrolidin-1-yl)propyl)hexadecahydrobenzo[l][1,4,7,11,14]penta-azacyclooctadecine-2,6,9,12,15(3H)-pentaone]
89.28	2.6	CN(C)Cc1ncc(-c2ccc(Oc3cc(Cl)ccc3CN3C(=O)C[C@@H](Cc4ccccc4)C(=O)N(C)[C@H]4CCCC[C@@H]4NC(=O)C[C@H](Cc4ccc(Cl)cc4)N(C)C(=O)[C@H](CO)NC(=O)[C@H]3CCC(=O)OC(C)(C)C)cc2)n1C [Compound 287, tert-butyl 3-((4S,7S,10R,14R,16aS,20aS)-14-benzyl-11-(4-chloro-2-(4-(2-((dimethylamino)methyl)-1-methyl-1H-imidazol-5-yl)phenoxy)benzyl)-4-(4-chlorobenzyl)-7-(hydroxymethyl)-5,16-dimethyl-2,6,9,12,15-pentaoxodocosahydrobenzo[l][1,4,7,11,14]pentaazacyclooctadecin-10-yl)propanoate]
87.05	24.1	COC[C@@H]1NC(=O)[C@@H](CCN(C)C)N(Cc2ccc(Cl)cc2Oc2ccc(-c3cnc(CN(C)C)n3C)cc2)C(=O)C[C@@H](Cc2ccccc2)C(=O)N(C)[C@H]2CCCC[C@@H]2NC(=O)C[C@H](Cc2ccc(Cl)cc2)N(C)C1=O [Compound 288, (4S,7S,10R,14R,16aS,20aS)-14-benzyl-11-(4-chloro-2-(4-(2-((dimethylamino)methyl)-1-methyl-1H-imidazol-5-yl)phenoxy)benzyl)-4-(4-chlorobenzyl)-10-(2-(dimethylamino)ethyl)-7-(methoxymethyl)-5,16-dimethylhexadecahydrobenzo[l][1,4,7,11,14]pentaazacyclooctadecine-2,6,9,12,15(3H)-pentaone]
